Experiments:
A9 cells = assay: Ultrasound mediated transfection of A9 cells with GFP chromosomes and Saint-2; assay type: cell-based, murine
Procedure: (§1) Alternatively, the medium was removed from the cells, and the cells were washed twice with HBSS. 500 μl HBSS/lipid solution at 37° C. was added to each well. The HBSS/lipid solution was prepared by adding 1 μl ethanolic lipid solution (prepared as described above) to 500 μl HBSS under vigorous vortexing. The plates were then sealed with parafilm tape and shaken gently at room temperature for 30 min. After incubation, ultrasound was applied at an output energy of 0.5 Watt/cm^2 for 60 sec through the bottom of the plate to the cells. The ultrasound was mediated by an ultrasound gel (Aquasonic 100, Parker, N.J.) between transducer and plate. The ultrasound was applied with an ImaRx Sonoporator 100. Immediately after applying ultrasound one GFP chromosome per seeded cell (2×10^5-5×10^5) (prepared in Example 1) was added. The plate was then sealed again and shaken gently for 1 h at room temperature. After the incubation 1 ml medium (CHO—S-SFM 2 with 10% Fetal Calf Serum, 10000 μg/ml Penicillin and 10000 μg/ml Streptomycin Gibco BRL, Paisley, UK) was added to each well and the cells were incubated for 24 h at 37° C. The cells were then washed with medium, 1 ml medium was added, and the cells were incubated at 37° for another 24 h. Detection of expressed genes was then assayed by microscopy or detection of the transferred chromosome by FISH analysis. […]

Hep-G2 cells = assay: Ultrasound mediated transfection of Hep-G2 cells with GFP chromosomes and Saint-2; assay type: cell-based
Procedure: as §1

CHO-KI cells = assay: Ultrasound mediated transfection of CHO-KI cells with GFP chromosomes and Saint-2; assay type: cell-based
Procedure: Vesicles were prepared at a lipid concentration of 700 nmol/ml lipid (cationic lipid/DOPE 1:1) as follows. In a glass tube (10 ml) 350 nmol cationic lipid (SAINT-2) was mixed with 350 nmol dioleoylphosphatidylethanolamine (DOPE), both solubilized in an organic solvent (Chloroform, Methanol or Chloroform/Methanol 1:1, v/v). dioleoylphosphatidylethanolamine (DOPE; Avanti Polar Lipids, Alabaster, Ala.) forms inverse hexagonal phases in a membrane and weakens the membrane. Other effectors that may be used are cis-unsaturated phosphatidylethanolamines, cis-unsaturated fatty acids, and cholesterol.
The solvent was evaporated under a stream of nitrogen (15 min/250 μl solvent at room temperature). The remaining solvent was removed totally by drying the lipid for 15 min in an desiccator under high vacuum from a vacuum pump. To the dried mixture was added 1 ml ultrapure water. This was vortexed vigorously for about 5 min. The resulting solution was sonicated in an ultrasonication bath (Laboratory Supplies Inc. N.Y.) until a clear solution was obtained. The resulting suspension contained a population of unilamellar vesicles with a size distribution between 50 to 100 nm.
CHO-KI cells were grown at 37° C., 5% CO2, in CHO—S-SFM 2 Medium, (Gibco BRL, Paisley, UK). Between 2×10^5 and 5×10^5 cells were plated onto sterile glass slides in a 12 well plate 24 h before usage.
Transfection of the cells was performed as follows. The medium was removed from the cells, and the cells were washed twice with HBSS (Hanks balanced salt solution without Phenol Red (Gibco BRL, UK)) at 37° C. Then 500 μl HBSS at 37° C. was added per well, followed by 10 μl of the freshly prepared vesicle solution (prepared in Example 2) to yield a final concentration of 23.3 nmol/ml.
as §1, with “temperature.” for “temperature. After the incubation 1 ml medium (CHO—S-SFM 2 with 10% Fetal Calf Serum, 10000 μg/ml Penicillin and 10000 μg/ml Streptomycin Gibco BRL, Paisley, UK) was added to each well and the cells were incubated for 24 h at 37° C. The cells were then washed with medium, 1 ml medium was added, and the cells were incubated at 37° for another 24 h. Detection of expressed genes was then assayed by microscopy or detection of the transferred chromosome by FISH analysis.”

## CCCCCCCCC=CCCCCCCCCC(CCCCCCCCC=CCCCCCCCC)c1cc[n+](C)cc1.[Cl-] (centres unmarked) [Saint-2, 1-methyl-4-(1-octadec-9-enyl-nonadec-10-enylenyl)pyridinium chloride]
A9 cells; A9, Saint-2/DOPE, ultrasound 0.5 Watt/cm^2 60 sec
  cells remained on the glass after transfection: 30%
A9 cells; A9, of the cells remaining on the glass
  remaining cells positive for green fluorescent protein expression: 50%
Hep-G2 cells; Hep-G2, Saint-2/DOPE, ultrasound 0.5 Watt/cm^2 60 sec
  cells remained on the glass slide after transfection: 30%
Hep-G2 cells; Hep-G2, of the cells remaining on the slide
  remaining cells positive for green fluorescent protein expression: 80%
CHO-KI cells; Saint-2/DOPE, ultrasound 0.5 Watt/cm^2 60 sec, visual inspection
  cells remained on the glass slide after transfection: 30%
CHO-KI cells; after 48 hours
  GFP positive cells as % of original population: 3%
CHO-KI cells; after 48 hours, of the cells remaining on the slide
  remaining cells positive for green fluorescent protein expression: 10%
CHO-KI cells; after culturing for two weeks
  cells containing an intact artificial chromosome (FISH): 1.4%
